Tested on: 994946-033-R-J1-PDC complex spheroid viability
Experiment: Anticancer human tumor 994946-033-R-J1-PDC patient-derived melanoma cell line growth inhibition [POLQ]
Settings: for IC50: curve of first compound; for viability, T/C: stronger effect = lower value; active = viability on the fitted dose curve at most 10% of control; inactive = the rest
In short: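 Growth inhibition in 3D: complex spheroids (tumor PDC, HUVEC, MSC) treated with POLQ inhibitor combinations; where Cmax unknown, highest tested concentration 10 microM, except SN-38 at 1 microM.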

[1] = second compound 0.0316 µM, first compound 0.0316 µM
[2] = second compound 0.0316 µM, first compound 0.1 µM
[3] = second compound 0.0316 µM, first compound 0.316 µM
[4] = second compound 0.0316 µM, first compound 1 µM
[5] = second compound 0.0316 µM, first compound 3.16 µM
[6] = second compound 0.0316 µM, first compound 10 µM
[7] = second compound 0.1 µM, first compound 0.0316 µM
[8] = second compound 0.1 µM, first compound 0.1 µM
[9] = second compound 0.1 µM, first compound 0.316 µM
[10] = second compound 0.1 µM, first compound 1 µM
[11] = second compound 0.1 µM, first compound 3.16 µM
[12] = second compound 0.1 µM, first compound 10 µM
[13] = second compound 0.316 µM, first compound 0.0316 µM
[14] = second compound 0.316 µM, first compound 0.1 µM
[15] = second compound 0.316 µM, first compound 0.316 µM
[16] = second compound 0.316 µM, first compound 1 µM
[17] = second compound 0.316 µM, first compound 3.16 µM
[18] = second compound 0.316 µM, first compound 10 µM
[19] = second compound 1 µM, first compound 0.0316 µM
[20] = second compound 1 µM, first compound 0.1 µM
[21] = second compound 1 µM, first compound 0.316 µM
[22] = second compound 1 µM, first compound 1 µM
[23] = second compound 1 µM, first compound 3.16 µM
[24] = second compound 1 µM, first compound 10 µM
[25] = second compound 3.16 µM, first compound 0.0316 µM
[26] = second compound 3.16 µM, first compound 0.1 µM
[27] = second compound 3.16 µM, first compound 0.316 µM
[28] = second compound 3.16 µM, first compound 1 µM
[29] = second compound 3.16 µM, first compound 3.16 µM
[30] = second compound 3.16 µM, first compound 10 µM
[31] = second compound 10 µM, first compound 0.0316 µM
[32] = second compound 10 µM, first compound 0.1 µM
[33] = second compound 10 µM, first compound 0.316 µM
[34] = second compound 10 µM, first compound 1 µM
[35] = second compound 10 µM, first compound 3.16 µM
[36] = second compound 10 µM, first compound 10 µM
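Note: spheroids exposed to drugs for 7 days.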
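Throughout, for viability, T/C: 100% = DMSO vehicle treated spheroids.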

CCc1cc2c(N3CCc4c(cc(Cn5ccnc5)cc4-c4cn(C)nc4C(F)(F)F)C3=O)cc(C)nc2c(OC)n1 + Nc1ccc(C#CCN(C(=O)Cc2ncc(C(F)(F)F)cc2C(F)(F)F)c2ccc(F)cc2)nn1
8520 nM: IC50 (second compound 0.0316 µM)
inactive: viability, T/C [1] 81.9% | viability, T/C [2] 107% | viability, T/C [3] 72.6% | viability, T/C [4] 68.3% | viability, T/C [5] 103% | viability, T/C [6] 44% | viability, T/C [7] 78.7% | viability, T/C [8] 102% | viability, T/C [9] 94.4% | viability, T/C [10] 93% | viability, T/C [11] 71.2% | viability, T/C [12] 54.3% | viability, T/C [13] 73% | viability, T/C [14] 79.8% | viability, T/C [15] 75.5% | viability, T/C [16] 87% | viability, T/C [17] 64% | viability, T/C [18] 89.1% | viability, T/C [19] 98.6% | viability, T/C [20] 71.5% | viability, T/C [21] 89.5% | viability, T/C [22] 51.8% | viability, T/C [23] 78.5% | viability, T/C [24] 72.2% | viability, T/C [25] 93.4% | viability, T/C [26] 84.3% | viability, T/C [27] 81.9% | viability, T/C [28] 65.7% | viability, T/C [29] 86.5% | viability, T/C [30] 65.5% | viability, T/C [31] 107% | viability, T/C [32] 96.1% | viability, T/C [33] 106% | viability, T/C [34] 89.2% | viability, T/C [35] 69.9% | viability, T/C [36] 49.9%
> 10000 nM: IC50 (second compound 0.1 µM) | IC50 (second compound 0.316 µM) | IC50 (second compound 1 µM) | IC50 (second compound 3.16 µM) | IC50 (second compound 10 µM)

CC1COCCN1c1cc(-c2ccnn2C)c2ccnc(-c3ccn[nH]3)c2n1 (stereo not drawn) + COC1C(OC(N)=O)C(O)C(Oc2ccc3c(O)c(NC(=O)c4ccc(O)c(CC=C(C)C)c4)c(=O)oc3c2C)OC1(C)C
48.2 nM: IC50 (second compound 0.0316 µM)
57 nM: IC50 (second compound 3.16 µM)
77 nM: IC50 (second compound 1 µM)
79.2 nM: IC50 (second compound 0.1 µM)
inactive: viability, T/C [1] 58.2% | viability, T/C [2] 33.9% | viability, T/C [3] 31.6% | viability, T/C [4] 18.4% | viability, T/C [5] 20.4% | viability, T/C [6] 11.8% | viability, T/C [7] 107% | viability, T/C [8] 35.2% | viability, T/C [9] 21.5% | viability, T/C [10] 30.3% | viability, T/C [11] 16.8% | viability, T/C [12] 12.3% | viability, T/C [13] 72.3% | viability, T/C [14] 60.4% | viability, T/C [15] 31.5% | viability, T/C [16] 22% | viability, T/C [17] 24.5% | viability, T/C [18] 13.6% | viability, T/C [19] 100% | viability, T/C [20] 34.5% | viability, T/C [21] 23.9% | viability, T/C [22] 23.2% | viability, T/C [23] 20.8% | viability, T/C [24] 12.6% | viability, T/C [25] 76.4% | viability, T/C [26] 24.7% | viability, T/C [27] 18.2% | viability, T/C [28] 13.4% | viability, T/C [29] 14.9% | viability, T/C [30] 13.5% | viability, T/C [31] 69.2% | viability, T/C [32] 32% | viability, T/C [33] 21.2% | viability, T/C [34] 32% | viability, T/C [35] 18.5% | viability, T/C [36] 10.3%
151 nM: IC50 (second compound 0.316 µM)
58.4 nM: IC50 (second compound 10 µM)

O=C(c1cc(Cc2n[nH]c(=O)c3ccccc23)ccc1F)N1CCN(C(=O)C2CC2)CC1 + Cc1cccc(N(C)C(=O)C2C(O)CCN2c2nc(C)cc(C(F)(F)F)c2C#N)c1
4160 nM: IC50 (second compound 0.1 µM)
inactive: viability, T/C [1] 103% | viability, T/C [2] 92.8% | viability, T/C [3] 82.3% | viability, T/C [4] 94.2% | viability, T/C [5] 80.2% | viability, T/C [6] 27.3% | viability, T/C [7] 100% | viability, T/C [8] 105% | viability, T/C [9] 89.9% | viability, T/C [10] 69.6% | viability, T/C [11] 57.9% | viability, T/C [12] 35.9% | viability, T/C [13] 106% | viability, T/C [14] 95.3% | viability, T/C [15] 82.5% | viability, T/C [16] 86.8% | viability, T/C [17] 92% | viability, T/C [18] 45.5% | viability, T/C [19] 79.7% | viability, T/C [20] 102% | viability, T/C [21] 81.7% | viability, T/C [22] 84.3% | viability, T/C [23] 75.6% | viability, T/C [24] 37% | viability, T/C [25] 105% | viability, T/C [26] 97.6% | viability, T/C [27] 79.5% | viability, T/C [28] 88.3% | viability, T/C [29] 56.8% | viability, T/C [30] 33.3% | viability, T/C [31] 110% | viability, T/C [32] 93.4% | viability, T/C [33] 83.3% | viability, T/C [34] 78% | viability, T/C [35] 77.5% | viability, T/C [36] 56.1%
6120 nM: IC50 (second compound 0.0316 µM)
6770 nM: IC50 (second compound 1 µM)
8940 nM: IC50 (second compound 0.316 µM)
> 10000 nM: IC50 (second compound 10 µM)
4890 nM: IC50 (second compound 3.16 µM)

COc1cc(C2c3cc4c(cc3C(OC3OC5COC(C)OC5C(O)C3O)C3COC(=O)C23)OCO4)cc(OC)c1O (stereo not drawn) + Cc1cccc(N(C)C(=O)C2C(O)CCN2c2nc(C)cc(C(F)(F)F)c2C#N)c1
388 nM: IC50 (second compound 3.16 µM)
250 nM: IC50 (second compound 0.316 µM)
207 nM: IC50 (second compound 1 µM)
inactive: viability, T/C [1] 76.3% | viability, T/C [2] 55.2% | viability, T/C [3] 42.6% | viability, T/C [4] 32.4% | viability, T/C [5] 14.2% | viability, T/C [7] 77.8% | viability, T/C [8] 47.9% | viability, T/C [9] 44.9% | viability, T/C [10] 32.4% | viability, T/C [11] 10.9% | viability, T/C [13] 79.7% | viability, T/C [14] 63.1% | viability, T/C [15] 34.4% | viability, T/C [16] 49.7% | viability, T/C [17] 12.9% | viability, T/C [19] 89.2% | viability, T/C [20] 49.1% | viability, T/C [21] 47.2% | viability, T/C [22] 35.3% | viability, T/C [23] 13.5% | viability, T/C [25] 72.5% | viability, T/C [26] 64.5% | viability, T/C [27] 56.8% | viability, T/C [28] 27.4% | viability, T/C [29] 14.1% | viability, T/C [31] 67.5% | viability, T/C [32] 45.3% | viability, T/C [33] 63.3% | viability, T/C [34] 58.7% | viability, T/C [35] 14.8%
active: viability, T/C [6] 6.56% | viability, T/C [12] 5.27% | viability, T/C [18] 8.08% | viability, T/C [24] 5.19% | viability, T/C [30] 5.31% | viability, T/C [36] 6.96%
1260 nM: IC50 (second compound 10 µM)
183 nM: IC50 (second compound 0.0316 µM)
164 nM: IC50 (second compound 0.1 µM)
